Test results reported in patent US20070167408A1, “NOVEL ALKYL PHOSPHOLIPID DERIVATIVES WITH REDUCED CYTOTOXICITY AND USES THEREOF” (ZENTARIS GmbH, priority 2005, published 2007).
Values after ≈ are worked out from the molar mass of the structure shown.

Columns and labels:
[1] = test system: PC3, RKOp21 and SKOV-3 cell lines; experiment: XTT cytotoxicity assay, mean over all three cell lines; type: cell-based, human; conditions: mean value over all three cell lines
Protocol: Following 2 days of continuous drug exposure 50 μl of freshly prepared XTT-PMS solution {2% 0.386 mg/ml PMS (N-Methyl Dibenzopyrazine Methylsulphate; Sigma, Cat. No. […] Serva, Cat. No. 38450) in RPMI 1640 medium without phenol red} was added to the wells. To measure the proportion of living cells, the cells were incubated for 3 h with XTT-PMS reagent at 37° C., 5% CO2, humidified atmosphere allowing to form the formazan salt. […] Inhibition curves were generated and IC50 values calculated by using GraphPad Prism. In the following table 7 cytotoxicity results (% inhibition of cell growth) obtained in the second set of experiments for selected compounds of the invention are presented in comparison to examples of the prior art (perifosine, miltefosine). The results presented are individual values for the respective cell line as well as the mean value over all three cell lines tested.

[2] = test system: PC3 (human prostate carcinoma) cells; experiment: XTT cytotoxicity assay, PC3 cells; type: cell-based; conditions: Homo sapiens, PC-3; 31.6 μM, second set of experiments; read-out: PC3 % INH [31.6 μM]
Protocol: (§1) Cytotoxicity of selected compounds of the invention against different mammalian cell lines was assessed as follows.
(§2) Human tumor cell lines KB/HeLa (ATCC CCL17, human cervix carcinoma), PC3 (ATCC CRL1435, human prostate carcinoma) and RKOp21 (human colon adenocarcinoma; Schmidt et al., Oncogene 2000, 19: 2423-2429) cells were used in an automated XTT screening assay for the assessment of cytotoxicity.
(§3) The XTT assay quantifies cellular metabolic activity which correlates with cell viability and cell number. Test compounds (selected compounds of the invention and known substances as controls) are dissolved in culture medium at 600 μM and added to the tumor cells in 10 different concentrations in a semi-logarithmic fashion starting from 100 μM as highest concentration.
(§4) In a second set of experiments employing PC3, RKOp21 and SKOV-3 (ATCC HTB-77, human ovary adenocarcinoma) cells, test and reference compounds were dissolved in 70% Ethanol/30% H2O in a stock concentration of 10 mM and diluted in cell culture medium to yield either 31.6 μM (PC3 and RKOp21) or 100 μM (SKOV-3) final concentration.
(§5) 48 h later cellular metabolic activity of cells treated with test compounds is quantified by measurement of the absorbance at 490 nm (conversion of XTT dye) in comparison to untreated control cells (100% viability).
(§6) KB/HeLa and PC3 cells were cultivated in RPMI 1640 medium (Gibco, Cat. No. 42401-018) supplemented with 10% heat inactivated fetal calf serum (FCS, Biochrom AG, Cat. No. S0115), 2 mM L-glutamine (Gibco, Cat. No. 25030-24) and 2% Penicillin-Streptomycin (PenStrep, Gibco, Cat. No. 15140-122). RKOp21 cells were grown in DMEM+GlutaMAXTM-I medium (Gibco, Cat. No. 61965-026) supplemented with 10% heat inactivated fetal calf serum (FCS, Biochrom AG, Cat. No. S0115), 2 mM L-glutamine (Gibco, Cat. No. 25030-24), 2% Penicillin-Streptomycin (PenStrep, Gibco, Cat. No. 15140-122) and 1% 1M HEPES (Gibco, Cat. No. 15630-056). All cells were cultured at 37° C. in 5% CO2 humidified air.
(§7) On the first day of the experiment cells were harvested from exponential phase cultures by trypsination, counted and plated into 96 well flat-bottom micro titer plates depending on the cell line as listed below:
(§8) After a 24 h recovery to allow the cells to resume exponential growth, the test compounds were diluted immediately prior to use and transferred in 25 μl volume to the wells.
(§9) Following 2 days of continuous drug exposure 50 μl of freshly prepared XTT-PMS solution {2% 0.386 mg/ml PMS (N-Methyl Dibenzopyrazine Methylsulphate; Sigma, Cat. No. P9625) in PBS+98% 1 mg/ml XTT (Sodium 2,3-bis(2-methoxy-4-nitro-5-sulfophenyl)-5-[(phenylamino)carbonyl]-2H-Tetrazolium; Serva, Cat. No. 38450) in RPMI 1640 medium without phenol red} was added to the wells. To measure the proportion of living cells, the cells were incubated for 3 h with XTT-PMS reagent at 37° C., 5% CO2, humidified atmosphere allowing to form the formazan salt. The amount of soluble formazan salt produced by cellular reduction of XTT is quantified by measuring the absorbance at 490 nm using the Biomek® 2000 ELISA plate reader. %-inhibition (cytotoxicity) of each test compound was calculated in relation to untreated control cells. Inhibition curves were generated and IC50 values calculated by using GraphPad Prism.

[3] = test system: RKOp21 (human colon adenocarcinoma) cells; experiment: XTT cytotoxicity assay, RKOp21 cells; type: cell-based; conditions: Homo sapiens; 31.6 μM, second set of experiments; read-out: RKOp21 % INH [31.6 μM]
Protocol: as §1, §2, §3, §4, §5, §6, §7, §8, §9

[4] = test system: SKOV-3 (human ovary adenocarcinoma) cells; experiment: XTT cytotoxicity assay, SKOV-3 cells; type: cell-based; conditions: Homo sapiens, SK-OV-3, second set of experiments, read-out: SKOV-3 % INH [100 μM]
Protocol: On the first day of the experiment cells were harvested from exponential phase cultures by trypsination, counted and plated into 96 well flat-bottom micro titer plates depending on the cell line as listed below: [table] After a 24 h recovery to allow the cells to resume exponential growth, the test compounds were diluted immediately prior to use and transferred in 25 μl volume to the wells. Following 2 days of continuous drug exposure 50 μl of freshly prepared XTT-PMS solution {2% 0.386 mg/ml PMS (N-Methyl Dibenzopyrazine Methylsulphate; Sigma, Cat. No. […] Serva, Cat. No. 38450) in RPMI 1640 medium without phenol red} was added to the wells. To measure the proportion of living cells, the cells were incubated for 3 h with XTT-PMS reagent at 37° C., 5% CO2, humidified atmosphere allowing to form the formazan salt. […] Inhibition curves were generated and IC50 values calculated by using GraphPad Prism.

[5] = test system: Bacteroides fragilis DSM 2151 (ATCC 25285); experiment: Anti-bacterial bouillon microdilution assay (MIC), bacterium E; type: cell-based; conditions: anaerob, 24 h
Protocol: (§10) Selected compounds of the invention were tested in a bouillon microdilution assay method according to the DIN 58940 (www.din.de) guidelines for determination of susceptibility of bacterial strains with regard to cell growth inhibition. The assay method quantifies bacterial cell growth which corresponds to the turbidity of the liquid culture medium by photometric measurement carried out at 595 nm.
(§11) The method of MIC determination was performed according to DIN 58940-5. The volumina were adapted according to the microdilution method as described in DIN 58940-7 guideline.
(§12) Dependent on water solubility, compounds of the invention were dissolved either in water or ethanol in a concentration of 10 mg/ml. Subsequently, the stock was further diluted in water to a concentration of 512 μg/ml. The following serial dilutions (factor 2) were performed in water resulting in the following […] testing concentrations: 256 μg/ml, 128 μg/ml, 64 μg/ml, 32 μg/ml, 16 μg/ml, 8 μg/ml, 4 μg/ml, 2 μg/ml, 1 μg/ml, 0.5 μg/ml, 0.25 μg/ml and 0.125 μg/ml. Diluted compounds of the invention were transferred in 100 μl volume to the microtiter plate wells.
(§13) Pre-cultures of bacteria were grown in appropriate liquid media (refer to ATCC webpage, www.atcc.org) and afterwards were inoculated in corresponding liquid medium. 100 μl of the inoculums [adjusted to an amount of app. 1×10^6 microorganisms per ml (range of 10^5-10^8 microorganisms per ml)] were added to each of the testing compound concentrations and cultivated under the appropriate conditions.
(§14) Before and after incubation, bacterial growth was determined by photometric analysis against a positive control containing growing bacteria without compound and a sterile/negative control containing only the medium.

[6] = test system: Moraxella catarrhalis DMS 11994 (ATCC 43617); experiment: Anti-bacterial bouillon microdilution assay (MIC), bacterium D; type: cell-based; conditions: ATCC43617, 24 h
Protocol: as §10, §11, §12, §13, §14

[7] = test system: Aspergillus fumigatus ATCC 204305; experiment: Anti-fungal broth microdilution (MIC), fungus A; type: cell-based; conditions: filamentous protocol, more than 50% growth inhibition, 48 to 72 h
Protocol: (§15) Anti-fungal activity of selected compounds of the invention was assessed by means of anti-fungal susceptibility tests as follows.
(§16) The antifungal activities of the compounds of the invention against different fungi were measured according to standard broth microdilution methods of the US National Committee for Clinical Laboratory standards (NCCLS) for yeasts (NCCLS document M27-A, 1997) and filamentous fungi (NCCLS document M38-A, 2002).
(§17) Stock solutions of compounds of the invention were freshly prepared on the days of experiments equal to 1.28 mg/10 ml media. Serial dilutions were performed to achieve the following testing concentrations: 64 μg/ml, 32 μg/ml, 16 μg/ml, 8 μg/ml, 4 μg/ml, 2 μg/ml, 1 μg/ml, 0.5 μg/ml, 0.25 μg/ml and 0.125 μg/ml.
(§18) An inoculum of 10^6 CFU/ml of the fungi strain was prepared in the appropriate medium and transferred to test tubes for incubation.
(§19) The method is used to determine the minimum inhibitory concentrations (MIC) of drugs on fungi strains. […] For the filamentous fungi protocol, MIC determination took place after 48 to 72 h of culture at 35° C. and was defined at that concentration which produced more than 50% visible growth inhibition.

[8] = test system: Cryptococcus gattii ATCC 32608; experiment: Anti-fungal broth microdilution (MIC), fungus J; type: cell-based; conditions: yeast protocol, more than 80% inhibition, 48 h
Protocol: as §15, §16, §17, §18, §19

[9] = test system: Candida parapsilosis ATCC 22019; experiment: Anti-fungal broth microdilution (MIC), fungus G; type: cell-based; conditions: yeast protocol, more than 80% inhibition, 48 h
Protocol: as §15, §16, §17, §18, §19

[10] = test system: Candida albicans ATCC 10231; experiment: Anti-fungal broth microdilution (MIC), fungus D; type: cell-based; conditions: yeast protocol, more than 80% inhibition, 48 h
Protocol: as §15, §16, §17, §18, §19

[11] = test system: Candida albicans ATCC 90028; experiment: Anti-fungal broth microdilution (MIC), fungus E; type: cell-based; conditions: yeast protocol, more than 80% inhibition, 48 h
Protocol: as §15, §16, §17, §18, §19

[12] = test system: Cryptococcus neoformans H99; experiment: Anti-fungal broth microdilution (MIC), fungus I; type: cell-based; conditions: yeast protocol, more than 80% inhibition, 48 h
Protocol: as §15, §16, §17, §18, §19

[13] = test system: Aspergillus fumigatus 040-200167; experiment: Anti-fungal broth microdilution (MIC), fungus C; type: cell-based; conditions: filamentous protocol, more than 50% growth inhibition, 48 to 72 h
Protocol: as §15, §16, §17, §18, §19

Candida albicans TS3 = experiment: Anti-fungal broth microdilution (MIC), fungus F; type: cell-based; conditions: yeast protocol, more than 80% inhibition, 48 h
Protocol: as §15, §16, §17, §18, §19

[14] = test system: Cryptococcus neoformans ATCC 90112; experiment: Anti-fungal broth microdilution (MIC), fungus H; type: cell-based; conditions: yeast protocol, more than 80% inhibition, 48 h
Protocol: as §15, §16, §17, §18, §19

[15] = test system: Aspergillus fumigatus 322-384; experiment: Anti-fungal broth microdilution (MIC), fungus B; type: cell-based; conditions: filamentous protocol, more than 50% growth inhibition, 48 to 72 h
Protocol: as §15, §16, §17, §18, §19

**Q.** Which “Mean % INH” value [1] does the source give for `CCCCCCCCCCCCCCCCOP(=O)([O-])OCC[N+]1(C)C=CC(C(=O)OCC)CC1` (stereo not shown) [Compound 266] here?
**A.** 13.6%

**Q.** And the inhibition at 31.6 µM [2]?
**A.** 25.8%

**Q.** What about the inhibition at 31.6 µM [3] of the same compound?
**A.** 6.6%

**Q.** What about the inhibition at 100 µM [4] of the same compound?
**A.** 8.5%

**Q.** And the MIC [5]?
**A.** 128 µg/mL (≈ 247 µM)

**Q.** And the MIC [6]?
**A.** 8 µg/mL (≈ 15.5 µM)

**Q.** What does the source list for `CCCCCCCCCCCCCCCCOCCCOP(=O)([O-])OCC[N+](C)(C)C` [Compound 8, Phosphoric acid 3-hexadecyloxy-propyl ester 2-trimethyl-ammonium-ethyl ester]?
**A.** MIC ([7]; Aspergillus fumigatus, ATCC204305): 2 µg/mL; MIC [8]: 0.75 µg/mL; MIC [9]: 0.75 µg/mL; MIC [10]: 0.75 µg/mL; MIC [11]: 0.75 µg/mL; MIC [12]: 1.5 µg/mL; MIC ([13]; Aspergillus fumigatus, 040200167): 2 µg/mL; MIC (Candida albicans TS3): 1 µg/mL; MIC [14]: 2 µg/mL; MIC ([15]; Aspergillus fumigatus, 322384): 2 µg/mL

**Q.** For `CCCCCCCCCCCCCCCCCCOP(=O)([O-])OCC[As+](C)(C)C` [Compound 22, Phosphoric acid octadecyl ester 2-(N,N,N-trimethyl-arsen)-ethyl ester], which “MIC, fungus A” value [7] is on record?
**A.** 3 µg/mL

**Q.** What about the “MIC, fungus J” value [8] of the same compound?
**A.** 0.5 µg/mL

**Q.** What about the “MIC, fungus G” value [9] of the same compound?
**A.** 1 µg/mL

**Q.** And the “MIC, fungus D” value [10]?
**A.** 0.5 µg/mL

**Q.** What about the “MIC, fungus E” value [11] of the same compound?
**A.** 1 µg/mL

**Q.** And the “MIC, fungus I” value [12]?
**A.** 6.6 µg/mL

**Q.** What about the “MIC, fungus C” value [13] of the same compound?
**A.** 3 µg/mL

**Q.** What about the “MIC, fungus F” value (Candida albicans TS3) of the same compound?
**A.** 1 µg/mL

**Q.** What about the “MIC, fungus H” value [14] of the same compound?
**A.** 1.5 µg/mL

**Q.** And the “MIC, fungus B” value [15]?
**A.** 2 µg/mL

**Q.** How did the “Mean % INH” value [1] turn out when `CCCCCCCCCCCCCCCCOP(=O)([O-])OCC[N+]1(C)CCCC1` [Compound 90] was run?
**A.** 54.0%

**Q.** And the inhibition at 31.6 µM [2]?
**A.** 55.5%

**Q.** And the inhibition at 31.6 µM [3]?
**A.** 51.9%

**Q.** And the inhibition at 100 µM [4]?
**A.** 54.6%

**Q.** What about the MIC [5] of the same compound?
**A.** 128 µg/mL (≈ 295 µM)
